In PubChem BioAssay AID1963870 (Molecular Pharmacology Branch, DTP, NCI, 2024):
Values belong to the molecule of their own block, whether it stands above or below them.

Tested on: 292921-168-R-J2-PDC KRAS tumor spheroid viability
Assay: Anticancer human tumor 292921-168-R-J2-PDC patient-derived pancreatic carcinoma cell line growth inhibition [KRAS2]
Conditions: spheroids with HUVEC and MSC; for viability, T/C: stronger effect = lower value
Outline: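 Combination screen of spheroid viability in tumor-cell co-cultures with endothelial (HUVEC) and mesenchymal stem cell stroma. Each agent was tested in half-log dilutions, topping at clinical Cmax or at 10 microM without a known Cmax.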

[1] = compound alone, run of 08/26/2021
[2] = compound alone, run of 09/02/2021
[3] = curve of first compound, second compound 0.1 µM
[4] = curve of first compound, second compound 0.316 µM
[5] = curve of first compound, second compound 1 µM
[6] = curve of first compound, second compound 3.16 µM
[7] = curve of first compound, second compound 10 µM
[8] = second compound 0.1 µM, first compound 0.0316 µM
[9] = second compound 0.1 µM, first compound 0.1 µM
[10] = second compound 0.1 µM, first compound 0.316 µM
[11] = second compound 0.1 µM, first compound 1 µM
[12] = second compound 0.1 µM, first compound 3.16 µM
[13] = second compound 0.316 µM, first compound 0.0316 µM
[14] = second compound 0.316 µM, first compound 0.1 µM
[15] = second compound 0.316 µM, first compound 0.316 µM
[16] = second compound 0.316 µM, first compound 1 µM
[17] = second compound 0.316 µM, first compound 3.16 µM
[18] = second compound 1 µM, first compound 0.0316 µM
[19] = second compound 1 µM, first compound 0.1 µM
[20] = second compound 1 µM, first compound 0.316 µM
[21] = second compound 1 µM, first compound 1 µM
[22] = second compound 1 µM, first compound 3.16 µM
[23] = second compound 3.16 µM, first compound 0.0316 µM
[24] = second compound 3.16 µM, first compound 0.1 µM
[25] = second compound 3.16 µM, first compound 0.316 µM
[26] = second compound 3.16 µM, first compound 1 µM
[27] = second compound 3.16 µM, first compound 3.16 µM
[28] = second compound 10 µM, first compound 0.0316 µM
[29] = second compound 10 µM, first compound 0.1 µM
[30] = second compound 10 µM, first compound 0.316 µM
[31] = second compound 10 µM, first compound 1 µM
[32] = second compound 10 µM, first compound 3.16 µM
[33] = second compound 0.1 µM, first compound 10 µM
[34] = second compound 0.316 µM, first compound 10 µM
[35] = second compound 1 µM, first compound 10 µM
[36] = second compound 3.16 µM, first compound 10 µM
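Further: drug exposure lasted seven days after spheroids formed for three days.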
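Wherever viability, T/C is given: percent of DMSO vehicle control viability which is 100%.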

- IC50 (curve of compound): 2.48 µM [middle of 5 runs]
SMILES: COc1cc(OC)cc(N(CCNC(C)C)c2ccc3ncc(-c4cnn(C)c4)nc3c2)c1
- viability, T/C (compound 0.0316 µM): 72.9% [middle of 5 runs]
- viability, T/C (compound 0.1 µM): 77.1% [middle of 5 runs]
- viability, T/C (compound 0.316 µM): 77.7% [middle of 5 runs]
- viability, T/C (compound 1 µM): 69.4% [middle of 5 runs]
- viability, T/C (compound 3.16 µM): 45.9% [middle of 5 runs]
- viability, T/C (compound 10 µM): 0.9% [middle of 5 runs]

SMILES: C=CC(=O)N1CCN(c2nc(=O)n(-c3c(C)ccnc3C(C)C)c3nc(-c4c(O)cccc4F)c(F)cc23)C(C)C1 (stereo not given)
- IC50 [1]: 5.55 µM [middle of 5 runs]
- IC50 [2]: 5.47 µM [middle of 6 runs]

SMILES: CC1COCCN1c1cc(-c2ccnn2C)c2ccnc(-c3ccn[nH]3)c2n1 (stereo not given) + COc1cc2nc(C)nc(NC(C)c3cc(N)cc(C(F)(F)F)c3)c2cc1OC1CCOC1
- IC50 [3]: < 10 nM
- IC50 [4]: < 10 nM
- IC50 [5]: < 10 nM
- IC50 [6]: < 10 nM
- IC50 [7]: < 10 nM
- viability, T/C (second compound 0.1 µM, first compound 0.01 µM): 30.3%
- viability, T/C [8]: 14.4%
- viability, T/C [9]: 11.1%
- viability, T/C [10]: 10.6%
- viability, T/C [11]: 12.1%
- viability, T/C [12]: 14.1%
- viability, T/C (second compound 0.316 µM, first compound 0.01 µM): 25.2%
- viability, T/C [13]: 12.9%
- viability, T/C [14]: 10.1%
- viability, T/C [15]: 9.13%
- viability, T/C [16]: 10.8%
- viability, T/C [17]: 12.5%
- viability, T/C (second compound 1 µM, first compound 0.01 µM): 25.6%
- viability, T/C [18]: 11.6%
- viability, T/C [19]: 9.3%
- viability, T/C [20]: 8.99%
- viability, T/C [21]: 11.2%
- viability, T/C [22]: 13.2%
- viability, T/C (second compound 3.16 µM, first compound 0.01 µM): 19.4%
- viability, T/C [23]: 12.1%
- viability, T/C [24]: 9.36%
- viability, T/C [25]: 8.32%
- viability, T/C [26]: 10.4%
- viability, T/C [27]: 11.8%
- viability, T/C (second compound 10 µM, first compound 0.01 µM): 12.9%
- viability, T/C [28]: 12.5%
- viability, T/C [29]: 9.42%
- viability, T/C [30]: 8.21%
- viability, T/C [31]: 8.78%
- viability, T/C [32]: 7.99%

SMILES: COc1cc(Nc2ncc3c(n2)-c2ccc(Cl)cc2C(c2c(F)cccc2OC)=NC3)ccc1C(=O)O + C=CC(=O)N1CCN(c2nc(=O)n(-c3c(C)ccnc3C(C)C)c3nc(-c4c(O)cccc4F)c(F)cc23)C(C)C1
- IC50 [3]: < 31.6 nM
- IC50 [4]: < 31.6 nM
- IC50 [5]: < 31.6 nM
- IC50 [6]: < 31.6 nM
- IC50 [7]: < 31.6 nM
- viability, T/C [8]: 33.5%
- viability, T/C [9]: 34.2%
- viability, T/C [10]: 41.3%
- viability, T/C [11]: 40.8%
- viability, T/C [12]: 34.8%
- viability, T/C [33]: 26.4%
- viability, T/C [13]: 35.9%
- viability, T/C [14]: 33.3%
- viability, T/C [15]: 37.4%
- viability, T/C [16]: 40.2%
- viability, T/C [17]: 40.3%
- viability, T/C [34]: 29.9%
- viability, T/C [18]: 41.8%
- viability, T/C [19]: 35.6%
- viability, T/C [20]: 40.1%
- viability, T/C [21]: 39.4%
- viability, T/C [22]: 32.3%
- viability, T/C [35]: 30.6%
- viability, T/C [23]: 36.8%
- viability, T/C [24]: 31.5%
- viability, T/C [25]: 34.8%
- viability, T/C [26]: 38%
- viability, T/C [27]: 35.2%
- viability, T/C [36]: 29.5%
- viability, T/C [28]: 22.9%
- viability, T/C [29]: 30.9%
- viability, T/C [30]: 35.2%
- viability, T/C [31]: 34.5%
- viability, T/C [32]: 31.8%
- viability, T/C (second compound 10 µM, first compound 10 µM): 30%

SMILES: CC1OCC2(CCN(c3cnc(Sc4ccnc(N)c4Cl)c(N)n3)CC2)C1N (stereo not given)
- viability, T/C (compound 0.0316 µM): 86.4% [middle of 4 runs]
- IC50 [1]: 696 nM [middle of 5 runs]
- IC50 [2]: 524 nM [middle of 5 runs]
- IC50 (curve of compound): 619 nM [middle of 5 runs]

SMILES: Cn1nccc1Nc1nccc(-c2cc3c(s2)C(C)(C)N(CCN2CCOCC2)C3=O)n1
- viability, T/C (compound 0.0316 µM): 80.7% [middle of 5 runs]
- viability, T/C (compound 0.1 µM): 45.7% [middle of 5 runs]
- viability, T/C (compound 0.316 µM): 21.1% [middle of 5 runs]
- viability, T/C (compound 1 µM): 13.4% [middle of 4 runs]
- viability, T/C (compound 3.16 µM): 11.2% [middle of 4 runs]
- viability, T/C (compound 10 µM): 11.7% [middle of 5 runs]
- IC50 (curve of compound): 86 nM [middle of 5 runs]

SMILES: CC(C)NCC(C(=O)N1CCN(c2ncnc3c2C(C)CC3O)CC1)c1ccc(Cl)cc1 (stereo not given) + C=CC(=O)N1CCN(c2nc(OCC3CCCN3C)nc3c2CCN(c2cccc4cccc(C)c24)C3)CC1CC#N
- IC50 (curve of first compound, second compound 0.0316 µM): > 10000 nM
- IC50 [3]: > 10000 nM
- IC50 [4]: 6010 nM
- IC50 [5]: < 31.6 nM
- IC50 [6]: < 31.6 nM
- viability, T/C (second compound 0.0316 µM, first compound 0.0316 µM): 88%
- viability, T/C (second compound 0.0316 µM, first compound 0.1 µM): 84.6%
- viability, T/C (second compound 0.0316 µM, first compound 0.316 µM): 84.5%
- viability, T/C (second compound 0.0316 µM, first compound 1 µM): 82%
- viability, T/C (second compound 0.0316 µM, first compound 3.16 µM): 73.9%
- viability, T/C (second compound 0.0316 µM, first compound 10 µM): 54.7%
- viability, T/C [8]: 85.2%
- viability, T/C [9]: 78.6%
- viability, T/C [10]: 85.3%
- viability, T/C [11]: 79.3%
- viability, T/C [12]: 74.4%
- viability, T/C [33]: 51.8%
- viability, T/C [13]: 71.5%
- viability, T/C [14]: 68.5%
- viability, T/C [15]: 65.1%
- viability, T/C [16]: 69.2%
- viability, T/C [17]: 59%
- viability, T/C [34]: 42.3%
- viability, T/C [18]: 36.7%
- viability, T/C [19]: 28.8%
- viability, T/C [20]: 28.9%
- viability, T/C [21]: 32.1%
- viability, T/C [22]: 28.1%
- viability, T/C [35]: 21%
- viability, T/C [23]: 0.1%
- viability, T/C [24]: 0.09%
- viability, T/C [25]: 0.09%
- viability, T/C [26]: 0.1%
- viability, T/C [27]: 0.11%
- viability, T/C [36]: 0.21%
